pIC50: −log10 of the molar value. Activity calls are given as the source filed them. No cut-off for these calls is given here.
Columns and labels:
Rattus norvegicus [1] = test: Reduction of amyloid beta level in Sprague-Dawley rat CSF at 100 mg/kg, po after 36 hrs by immunoassay; format: functional, organism-based; set-up: dose 100 mg/kg
Rattus norvegicus [2] = test: Reduction of amyloid beta-40 level in Sprague-Dawley rat brain at 100 mg/kg, po after 4 hrs by immunoassay; format: functional, organism-based; set-up: dose 100 mg/kg
Rattus norvegicus [3] = test: Reduction of amyloid beta-42 level in Sprague-Dawley rat CSF at 30 mg/kg, po after 24 hrs by immunoassay relative to control; format: functional; set-up: scale not given: the % may be the effect or the level left
[4] = Efflux ratio of apparent permeability in pig LLC-PK1 cells; format: ADME, cell-based, Sus scrofa
[5] = Ratio of drug level in brain to plasma in Sprague-Dawley rat; format: ADME, cell-free; details: read-out: BPR
Rattus norvegicus [6] = test: Reduction of amyloid beta-42 level in Sprague-Dawley rat brain at 100 mg/kg, po after 4 hrs by immunoassay relative to control; format: functional; set-up: scale not given: the % may be the effect or the level left
[7] = Metabolic stability in rat liver microsomes at 1 uM after 30 mins; format: ADME; details: read-out: Stability
[8] = Half life in cynomolgus monkey at 2 mg/kg, iv; format: ADME, organism-based, Macaca fascicularis; set-up: dose 2 mg/kg, route intravenous; details: in vivo
Plasma [9] = test: Unbound plasma concentration in Sprague-Dawley rat at 300 mg/kg; format: ADME, organism-based; set-up: dose 300 mg/kg; details: in vivo
Rattus norvegicus [10] = test: Reduction of amyloid beta-42 level in Sprague-Dawley rat CSF at 100 mg/kg, po after 4 hrs by immunoassay relative to control; format: functional; set-up: scale not given: the % may be the effect or the level left
[11] = Oral bioavailability in cynomolgus monkey at 5 mg/kg; format: ADME, organism-based, Macaca fascicularis; details: in vivo
[12] = Oral bioavailability in rat at 5 mg/kg; format: ADME, organism-based; details: in vivo
Rattus norvegicus [13] = test: Reduction of amyloid beta-42 level in Sprague-Dawley rat CSF at 300 mg/kg, po after 24 hrs by immunoassay relative to control; format: functional; set-up: scale not given: the % may be the effect or the level left
Cytochrome P450 3A4 = Cytochrome P450 3A4 (Homo sapiens, UniProt P08684); test: Inhibition of CYP3A4 (unknown origin) after 5 mins; format: ADME
Cytochrome P450 3A4, sequence (P08684 whole entry): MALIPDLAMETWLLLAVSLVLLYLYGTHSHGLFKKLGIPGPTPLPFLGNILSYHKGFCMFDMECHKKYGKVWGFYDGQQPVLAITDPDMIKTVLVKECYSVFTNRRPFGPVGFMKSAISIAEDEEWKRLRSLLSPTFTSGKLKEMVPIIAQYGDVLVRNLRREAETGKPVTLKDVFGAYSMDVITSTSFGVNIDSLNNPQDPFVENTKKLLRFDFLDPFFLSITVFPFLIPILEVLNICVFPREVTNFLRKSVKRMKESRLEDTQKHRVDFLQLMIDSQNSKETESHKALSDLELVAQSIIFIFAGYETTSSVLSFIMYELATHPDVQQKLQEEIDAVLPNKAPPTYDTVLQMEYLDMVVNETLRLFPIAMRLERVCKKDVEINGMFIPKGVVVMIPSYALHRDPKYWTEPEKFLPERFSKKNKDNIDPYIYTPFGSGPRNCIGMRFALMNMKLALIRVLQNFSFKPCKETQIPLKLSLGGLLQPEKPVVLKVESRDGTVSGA

[14] = Metabolic stability in human liver microsomes at 1 uM after 30 mins; format: ADME; details: read-out: Stability
Rattus norvegicus [15] = test: Reduction of amyloid beta-40 level in Sprague-Dawley rat CSF at 100 mg/kg, po after 4 hrs by immunoassay; format: functional, organism-based; set-up: dose 100 mg/kg
[16] = Volume of distribution at steady state in cynomolgus monkey at 2 mg/kg, iv; format: ADME, organism-based, Macaca fascicularis; set-up: dose 2 mg/kg, route intravenous; details: in vivo, read-out: Vdss
Rattus norvegicus [17] = test: Toxicity in Sprague-Dawley rat assessed as histopathological changes at 30 to 300 mg/kg, po after 4 days by light microscopic analysis; format: organism-based; set-up: dose 30-300 mg/kg, route oral; details: in vivo, 96 h
[18] = Apparent permeability in pig LLC-PK1 cells; format: ADME, cell-based, Sus scrofa
Plasma [19] = test: Drug uptake in Sprague-Dawley rat plasma at 100 mg/kg, po after 4 to 36 hrs by LC/MS analysis; format: ADME, organism-based; set-up: dose 100 mg/kg, route oral; details: in vivo
[20] = Volume of distribution at steady state in rat at 2 mg/kg, iv; format: ADME, organism-based; set-up: dose 2 mg/kg, route intravenous; details: in vivo, read-out: Vdss
[21] = target: T1, Gamma-secretase (Homo sapiens) (UniProt Q96BI3+Q9NZ42+Q8WW43+P49768+Q92542+P49810); test: Selectivity ratio of IC50 for gamma-secretase-mediated notch processing in HEK293 cells by dual-cell luciferase reporter gene assay to IC50 for gamma-secretase-mediated amyloid beta-42 production in HEK293 cells by HTRF assay; format: cell-based
Gamma-secretase [22] = test: Modulation of gamma-secretase in HEK293 cells expressing guinea pig Swedish mutant SFV-APP695sw coexpressing DLL4 assessed as inhibition of notch processing in human TE671 cells after 3 days by dual-cell luciferase reporter gene assay; format: cell-based
Brain = test: Drug uptake in Sprague-Dawley rat brain at 100 mg/kg, po after 4 to 36 hrs by LC/MS analysis; format: ADME, organism-based; set-up: dose 100 mg/kg, route oral; details: in vivo
Gamma-secretase [23] = test: Modulation of gamma-secretase in HEK293 cells expressing guinea pig Swedish mutant SFV-APP695sw assessed as inhibition of amyloid beta-40 production after 16 to 18 hrs by HTRF assay; format: cell-based, Homo sapiens
[24] = Half life in rat at 2 mg/kg, iv; format: ADME, organism-based; set-up: dose 2 mg/kg, route intravenous; details: in vivo
Gamma-secretase [25] = test: Modulation of gamma-secretase in HEK293 cells expressing guinea pig Swedish mutant SFV-APP695sw assessed as inhibition of amyloid beta-42 production after 16 to 18 hrs by HTRF assay; format: cell-based, Homo sapiens
Rattus norvegicus [26] = test: Toxicity in Sprague-Dawley rat assessed as notch-associated effects at 30 to 300 mg/kg, po after 4 days by light microscopic analysis; format: organism-based; set-up: dose 30-300 mg/kg, route oral; details: in vivo, 96 h
[27] = Clearance in cynomolgus monkey at 2 mg/kg, iv; format: ADME, organism-based, Macaca fascicularis; set-up: dose 2 mg/kg, route intravenous; details: in vivo
Cytochrome P450 2D6 = Cytochrome P450 2D6 (Homo sapiens, UniProt P10635); test: Inhibition of CYP2D6 (unknown origin) after 10 mins; format: ADME
Cytochrome P450 2D6, sequence (P10635 whole entry): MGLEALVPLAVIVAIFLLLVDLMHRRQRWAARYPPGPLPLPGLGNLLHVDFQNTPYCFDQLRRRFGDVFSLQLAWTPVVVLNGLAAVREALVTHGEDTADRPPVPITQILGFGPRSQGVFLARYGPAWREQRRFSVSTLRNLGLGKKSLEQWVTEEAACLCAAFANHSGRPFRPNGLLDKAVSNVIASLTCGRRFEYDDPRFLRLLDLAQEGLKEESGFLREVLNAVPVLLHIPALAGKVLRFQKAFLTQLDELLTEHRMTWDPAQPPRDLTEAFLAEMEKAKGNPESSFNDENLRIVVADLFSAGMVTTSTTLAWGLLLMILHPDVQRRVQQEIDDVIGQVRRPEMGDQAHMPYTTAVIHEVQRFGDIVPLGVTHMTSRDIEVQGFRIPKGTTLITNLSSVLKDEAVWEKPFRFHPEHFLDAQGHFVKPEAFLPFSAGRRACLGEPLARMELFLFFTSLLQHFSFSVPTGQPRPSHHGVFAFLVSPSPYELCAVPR

Rattus norvegicus [28] = test: Reduction of amyloid beta-42 level in Sprague-Dawley rat CSF at 100 mg/kg, po after 24 hrs by immunoassay relative to control; format: functional; set-up: scale not given: the % may be the effect or the level left
[29] = Ratio of unbound plasma concentration in Sprague-Dawley rat to gamma-secretase-mediated amyloid beta-42 production in HEK293 cells; format: ADME, cell-based
[30] = Clearance in rat at 2 mg/kg, iv; format: ADME, organism-based; set-up: dose 2 mg/kg, route intravenous; details: in vivo
[31] = Drug level in Sprague-Dawley rat CSF; format: ADME, Cerebrospinal fluid; details: in vivo, read-out: Ct
Plasma [32] = test: Unbound plasma concentration in Sprague-Dawley rat; format: ADME, cell-free
[33] = target: T1, Gamma-secretase (Homo sapiens); test: Modulation of gamma-secretase in HEK293 cells expressing guinea pig Swedish mutant SFV-APP695sw assessed as inhibition of amyloid beta-42 production at 10 uM after 16 to 18 hrs by HTRF assay relative to control; format: cell-based
[34] = Plasma protein binding in Sprague-Dawley rat; format: ADME, cell-free; details: read-out: PPB (converted)
[35] = AUC (0 to 24 hrs) in Sprague-Dawley rat at 3 mg/kg at day 4; format: ADME, organism-based; set-up: time < 24 hr, dose 3 mg/kg; details: plasma
Rattus norvegicus [36] = test: Toxicity in Sprague-Dawley rat assessed as presence of mixed inflammatory infiltrate with mild villus blunting and fusion in duodenum at 1 to 3 mg/kg after 4 days by light microscopic analysis; format: organism-based; set-up: dose 1-3 mg/kg; details: in vivo, other, 96 h
Rattus norvegicus [37] = test: Toxicity in Sprague-Dawley rat assessed as increase in neutrophils and monocytes in peripheral blood at 1 to 3 mg/kg after 4 days by light microscopic analysis; format: organism-based; set-up: dose 1-3 mg/kg; details: in vivo, 96 h
Rattus norvegicus [38] = test: Toxicity in Sprague-Dawley rat assessed as increased goblet cell numbers in duodenum at 1 to 3 mg/kg after 4 days by light microscopic analysis; format: organism-based; set-up: dose 1-3 mg/kg; details: in vivo, other, 96 h
Rattus norvegicus [39] = test: Toxicity in Sprague-Dawley rat assessed as thickening of hypertrophic zone of tibial physis at 1 to 3 mg/kg after 4 days by light microscopic analysis; format: organism-based; set-up: dose 1-3 mg/kg; details: in vivo, 96 h
Rattus norvegicus [40] = test: Reduction of amyloid beta-42 level in Sprague-Dawley rat CSF at 1 mg/kg after 4 hrs by immunoassay relative to control; format: functional; set-up: scale not given: the % may be the effect or the level left
Plasma [41] = test: Unbound plasma concentration in Sprague-Dawley rat at 1 mg/kg; format: ADME, organism-based; set-up: dose 1 mg/kg; details: in vivo
Rattus norvegicus [42] = test: Toxicity in Sprague-Dawley rat assessed as marginal zone lymphoid depletion in spleen at 1 to 3 mg/kg after 4 days by light microscopic analysis; format: organism-based; set-up: dose 1-3 mg/kg; details: in vivo, 96 h
Rattus norvegicus [43] = test: Reduction of amyloid beta-42 level in Sprague-Dawley rat CSF at 3 mg/kg after 4 hrs by immunoassay relative to control; format: functional; set-up: scale not given: the % may be the effect or the level left
Rattus norvegicus [44] = test: Reduction of amyloid beta-42 level in Sprague-Dawley rat CSF at 3 mg/kg after 24 hrs by immunoassay relative to control; format: functional; set-up: scale not given: the % may be the effect or the level left
Rattus norvegicus [45] = test: Toxicity in Sprague-Dawley rat assessed as increased goblet cell numbers in colon at 1 to 3 mg/kg after 4 days by light microscopic analysis; format: organism-based; set-up: dose 1-3 mg/kg; details: in vivo, 96 h
Rattus norvegicus [46] = test: Toxicity in Sprague-Dawley rat assessed as thymic cortical lymphoid depletion at 1 to 3 mg/kg after 4 days by light microscopic analysis; format: organism-based; set-up: dose 1-3 mg/kg; details: in vivo, 96 h
[47] = AUC (0 to 24 hrs) in Sprague-Dawley rat at 3 mg/kg at day 1; format: ADME, organism-based; set-up: time < 24 hr, dose 3 mg/kg; details: plasma
[48] = Ratio of drug level in brain to plasma in mouse at 10 mg/kg, po after 2 hrs; format: ADME, organism-based; set-up: dose 10 mg/kg, route oral; details: read-out: BPR

## Cc1cc(-c2ccc(NC(=O)[C@H](C)c3cc(C(F)(F)F)cc(C(F)(F)F)c3)cc2)ccn1
Rattus norvegicus [1]
  Activity: Active
Rattus norvegicus [2]
  Activity: inactive
Rattus norvegicus [3]
  Activity: 32%
[4]
  efflux ratio: 1.2
[5]
  Kp: 2
Rattus norvegicus [6]
  Activity: 33%
[7]
  microsomal CLint at 1 µM: < 14 µL/min/mg
[8]
  half-life: 15.9 h
Plasma [9]
  Cp(f): 0.57 nM
Rattus norvegicus [10]
  Activity: 41%
[11]
  bioavailability: 56%
[12]
  bioavailability: 100%
Rattus norvegicus [13]
  Activity: 55%
Cytochrome P450 3A4
  pIC50: < 4.57
[14]
  microsomal CLint at 1 µM: < 14 µL/min/mg
Rattus norvegicus [15]
  Activity: inactive
[16]
  Vd: 3.1 L/kg
Rattus norvegicus [17]
  Activity: Non-toxic
[18]
  Papp: 7.8 ×10⁻⁶ cm/s
Plasma [19]
  Drug uptake: Active
[20]
  Vd: 4.3 L/kg
[21]
  Ratio IC50: 45
Gamma-secretase [22]
  pIC50: 4.93
Brain
  Drug uptake: Active
Gamma-secretase [23]
  pIC50: 5.51
[24]
  half-life: 6 h
Gamma-secretase [25]
  pIC50: 6.59
Rattus norvegicus [26]
  Activity: Non-toxic
[27]
  clearance: 2.67 mL/min/kg
Cytochrome P450 2D6
  pIC50: 5.39
Rattus norvegicus [28]
  Activity: 44%
[29]
  Ratio: 2
[30]
  clearance: 9.67 mL/min/kg

## Cc1cc(-c2ccc(NC(=O)[C@H](CC(C)C)c3cccc(-c4ccc(N5CCOCC5)cc4)c3)cc2)ccn1
[31]
  concentration: 2 nM
Rattus norvegicus [10]
  Activity: 27%
Plasma [32]
  Cp(f): 290 nM
[18]
  Papp: < 1 ×10⁻⁶ cm/s
Gamma-secretase [25]
  pIC50: 7.70

## CCN(CC)c1ccc(C)c(Nc2nc(-c3ccc(-n4cnc(C)c4)cc3)cs2)c1
Gamma-secretase [23]
  pIC50: 6.25
Gamma-secretase [25]
  pIC50: 6.89

## Cc1cc(-c2ccc(NC(=O)c3cc(C(F)(F)F)cc(C(F)(F)F)c3)cc2)ccn1
[33]
  inhibition: 58%
[7]
  microsomal CLint at 1 µM: 14 µL/min/mg
Cytochrome P450 3A4
  pIC50: < 4.57
[14]
  microsomal CLint at 1 µM: 106 µL/min/mg
Gamma-secretase [25]
  pIC50: < 5.00
Cytochrome P450 2D6
  pIC50: < 4.57

## Cc1cc(-c2ccc(NC(=O)[C@@H](C)c3cc(C(F)(F)F)cc(C(F)(F)F)c3)cc2)ccn1
[5]
  Kp: 2
[7]
  microsomal CLint at 1 µM: < 14 µL/min/mg
Rattus norvegicus [10]
  Activity: inactive
Cytochrome P450 3A4
  pIC50: < 4.57
[14]
  microsomal CLint at 1 µM: < 14 µL/min/mg
Gamma-secretase [25]
  pIC50: < 5.00
Cytochrome P450 2D6
  pIC50: 5.59

## C[C@H](NC(=O)[C@@H](O)c1cc(F)cc(F)c1)C(=O)N[C@@H]1C(=O)N(C)c2ccccc2-c2ccccc21
[34]
  fraction unbound: 0.053
[35]
  AUC(0-t) at 24 h: 144 ng·h/mL
Rattus norvegicus [36]
  Activity: Toxic
Rattus norvegicus [37]
  Activity: Toxic
Rattus norvegicus [38]
  Activity: Toxic
Rattus norvegicus [39]
  Activity: Toxic
Rattus norvegicus [40]
  Activity: 33%
Plasma [41]
  Cp(f): 0.4 nM
Plasma [32]
  Cp(f): 1.2 nM
Rattus norvegicus [42]
  Activity: Toxic
Rattus norvegicus [43]
  Activity: 66%
Rattus norvegicus [44]
  Activity: 37%
Rattus norvegicus [45]
  Activity: Toxic
Rattus norvegicus [46]
  Activity: Toxic
[47]
  AUC(0-t) at 24 h: 386 ng·h/mL

## Cc1cc(-c2ccc(NC(=O)c3cc(Cl)cc(Cl)c3)cc2)ccn1
[33]
  inhibition: 53%
[7]
  microsomal CLint at 1 µM: 19 µL/min/mg
[48]
  Kp at 2 h: 1.46
Cytochrome P450 3A4
  pIC50: < 4.57
[14]
  microsomal CLint at 1 µM: 91 µL/min/mg
Gamma-secretase [25]
  pIC50: < 5.00
Cytochrome P450 2D6
  pIC50: < 4.57
